In BindingDB's records for patent US9790180 (REGENACY PHARMACEUTICALS, LLC, 2017):

Legend:
Histone deacetylase 3 = Histone deacetylase 3 (Homo sapiens, UniProt O15379)
Histone deacetylase 2 = Histone deacetylase 2 (Homo sapiens, UniProt Q92769)
Chain of Histone deacetylase 2 (Q92769 whole entry): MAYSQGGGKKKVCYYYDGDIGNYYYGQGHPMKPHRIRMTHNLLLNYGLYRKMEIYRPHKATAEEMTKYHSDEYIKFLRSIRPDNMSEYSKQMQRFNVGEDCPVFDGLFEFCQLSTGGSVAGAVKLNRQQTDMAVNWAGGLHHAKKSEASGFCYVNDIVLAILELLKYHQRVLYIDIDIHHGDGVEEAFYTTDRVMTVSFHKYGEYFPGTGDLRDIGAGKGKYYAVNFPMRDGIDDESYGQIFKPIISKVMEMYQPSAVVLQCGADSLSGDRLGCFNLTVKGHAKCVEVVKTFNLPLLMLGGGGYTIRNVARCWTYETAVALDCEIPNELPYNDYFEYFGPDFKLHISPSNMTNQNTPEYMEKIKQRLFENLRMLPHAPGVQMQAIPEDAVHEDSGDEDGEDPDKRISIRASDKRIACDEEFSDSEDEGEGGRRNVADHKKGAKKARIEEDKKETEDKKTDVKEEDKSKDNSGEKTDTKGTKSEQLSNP

Chain of Histone deacetylase 3 (O15379 whole entry): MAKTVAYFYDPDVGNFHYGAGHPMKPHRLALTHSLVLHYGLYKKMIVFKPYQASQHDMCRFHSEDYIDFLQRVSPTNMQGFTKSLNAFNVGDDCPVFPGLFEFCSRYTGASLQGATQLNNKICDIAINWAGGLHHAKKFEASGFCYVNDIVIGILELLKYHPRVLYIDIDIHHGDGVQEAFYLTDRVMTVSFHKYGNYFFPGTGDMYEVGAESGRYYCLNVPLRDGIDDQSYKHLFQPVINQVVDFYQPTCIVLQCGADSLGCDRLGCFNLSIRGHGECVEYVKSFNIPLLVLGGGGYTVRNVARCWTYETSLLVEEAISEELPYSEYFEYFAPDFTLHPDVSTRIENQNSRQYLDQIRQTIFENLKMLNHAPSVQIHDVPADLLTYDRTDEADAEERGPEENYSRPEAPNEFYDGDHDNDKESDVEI

| IC50 (Histone deacetylase 3) | IC50 (Histone deacetylase 2) | SMILES |
| --- | --- | --- |
| 252 nM | 26 nM | CC1(Nc2ncc(C(=O)Nc3cc(-c4ccccc4)ccc3N)cn2)CCNCC1 [US9790180, ID 041] |
| > 2000 nM | 211 nM | CN(c1ncc(C(=O)Nc2cc(-c3ccccc3)ccc2N)cn1)C1CCN(C(=O)Cc2c[nH]c3ccccc23)CC1 [US9790180, ID 033] |
| 1400 nM | 196 nM | Nc1ccc(-c2ccccc2)cc1NC(=O)c1cnc(NC2CCN(C(=O)Cc3c[nH]c4ccccc34)CC2)nc1 [US9790180, ID 035] |
